According to ChEMBL document CHEMBL4406811, “Optimization and Mechanistic Characterization of Pyridopyrimidine Inhibitors of Bacterial Biotin Carboxylase” (J Med Chem, 2019):
pIC50: −log10 of the molar value. ≈ marks a conversion by molar mass, not a printed value. Calls of active or inactive are those of the source. The calls are words filed in the database; no cut-off is given here.

Key:
IKBKE = IKBKE (Homo sapiens, UniProt Q14164); test: in vitro; conditions: probe FRET-labeled Ser/Thr 11 peptide
NTRK1 = NTRK1 (Homo sapiens, UniProt P04629); test: Inhibition of recombinant human His-tagged NTRK1 cytoplasmic domain (441 to 796 residues) expressed in baculovirus expression system at 25 uM using FRET-labeled tyr 07 peptide as substrate measured after 1 hr by Z'-lyte assay relative to control; conditions: probe FRET-labeled tyr 07 peptide
MET = MET (Homo sapiens, UniProt P08581); test: in vitro; conditions: probe FRET-labeled Tyr 06 peptide
CDK1/cyclin B = CDK1/cyclin B (Homo sapiens, UniProt P06493); test: Inhibition of full-length recombinant human His-tagged CDK1/cyclin B expressed in baculovirus expression system at 25 uM using FRET-labeled Ser/Thr 18 peptide as substrate measured after 1 hr by Z'-lyte assay relative to control; conditions: probe FRET-labeled Ser/Thr 18 peptide
FYN = FYN (Homo sapiens, UniProt P06241); test: Inhibition of full-length recombinant human C-terminal His-tagged FYN cytoplasmic domain expressed in baculovirus expression system at 25 uM using FRET-labeled tyr 02 peptide as substrate measured after 1 hr by Z'-lyte assay relative to control; conditions: probe FRET-labeled tyr 02 peptide
Pseudomonas aeruginosa = test: Antibacterial activity against Pseudomonas aeruginosa PAO1 PAM1262 harboring MexAB-OprM/MexCD-OprJ/MexEF-OprN deletion mutant assessed as mutation frequency at 8 times MIC after 48 hrs by broth microdilution method; type: functional
IKBKB = IKBKB (Homo sapiens, UniProt O14920); test: in vitro; conditions: probe FRET-labeled Ser/Thr 05 peptide
CSNK2A1 = CSNK2A1 (Homo sapiens, UniProt P68400); test: Inhibition of recombinant human full-length His-tagged CSNK2A1 expressed in baculovirus expression system at 25 uM using FRET-labeled Ser/Thr 11 peptide as substrate measured after 1 hr by Z'-lyte assay relative to control; conditions: probe FRET-labeled Ser/Thr 11 peptide
Escherichia coli [1] = test: Antibacterial activity against Escherichia coli DM4100 harboring deltatolC mutant measured after 18 to 20 hrs by broth microdilution method; type: functional
BTK = BTK (Homo sapiens, UniProt Q06187); test: Inhibition of full-length recombinant human His-tagged BTK cytoplasmic domain expressed in baculovirus expression system at 25 uM using FRET-labeled tyr 01 peptide as substrate measured after 1 hr by Z'-lyte assay relative to control; conditions: probe FRET-labeled tyr 01 peptide
AURKA = AURKA (Homo sapiens, UniProt O14965); test: Inhibition of recombinant human full-length His-tagged AURKA expressed in baculovirus expression system at 25 uM using FRET-labeled Ser/Thr 01 peptide as substrate measured after 1 hr by Z'-lyte assay relative to control; conditions: probe FRET-labeled Ser/Thr 01 peptide
Biotin carboxylase = Biotin carboxylase (Pseudomonas aeruginosa (strain ATCC 15692 / DSM 22644 / CIP 104116 / JCM14847 / LMG 12228 / 1C / PRS 101 / PAO1), UniProt P37798); test: Inhibition of recombinant N-terminal His-tagged Pseudomonas aeruginosa PAO1 biotin carboxylase expressed in Escherichia coli Rosetta(DE3) pLysS cells using biotin as substrate by spectroscopic analysis
MAPK1 = MAPK1 (Homo sapiens, UniProt P28482); test: Inhibition of recombinant human full-length GST-tagged MAPK1 […] expressed in Escherichia coli at 25 uM using FRET-labeled Ser/Thr 03 peptide as substrate measured after 1 hr by Z'-lyte assay relative to control; conditions: probe FRET-labeled Ser/Thr 03 peptide
MAPK14 = MAPK14 (Homo sapiens, UniProt Q16539); test: Inhibition of recombinant human full-length GST-tagged MAPK14 expressed in Escherichia coli at 25 uM using FRET-labeled Ser/Thr 15 peptide as substrate measured after 1 hr by Z'-lyte assay relative to control; conditions: probe FRET-labeled Ser/Thr 15 peptide
Escherichia coli [2] = test: Induction of cytological changes in Escherichia coli ATCC 25922 assessed as formation of short chains of three to eight cells at 100 ug/ml measured after 2 hrs by FM 4-64/DAPI staining based microscopic analysis; type: functional, organism-based
SGK (Sgk1) = SGK (Sgk1) (Homo sapiens, UniProt O00141); test: Inhibition of recombinant human GST-tagged SGK catalytic domain (60 to 431 residues) expressed in baculovirus expression system at 25 uM using FRET-labeled Ser/Thr 06 peptide as substrate measured after 1 hr by Z'-lyte assay relative to control; conditions: probe FRET-labeled Ser/Thr 06 peptide
Escherichia coli [3] = test: Induction of cytological changes in Escherichia coli ATCC 25922 assessed as formation of short chains of three to eight cells at 15 ug/ml measured after 2 hrs by FM 4-64/DAPI staining based microscopic analysis; type: functional, organism-based

Chain of NTRK1 (P04629 whole entry, the tested form may be a part): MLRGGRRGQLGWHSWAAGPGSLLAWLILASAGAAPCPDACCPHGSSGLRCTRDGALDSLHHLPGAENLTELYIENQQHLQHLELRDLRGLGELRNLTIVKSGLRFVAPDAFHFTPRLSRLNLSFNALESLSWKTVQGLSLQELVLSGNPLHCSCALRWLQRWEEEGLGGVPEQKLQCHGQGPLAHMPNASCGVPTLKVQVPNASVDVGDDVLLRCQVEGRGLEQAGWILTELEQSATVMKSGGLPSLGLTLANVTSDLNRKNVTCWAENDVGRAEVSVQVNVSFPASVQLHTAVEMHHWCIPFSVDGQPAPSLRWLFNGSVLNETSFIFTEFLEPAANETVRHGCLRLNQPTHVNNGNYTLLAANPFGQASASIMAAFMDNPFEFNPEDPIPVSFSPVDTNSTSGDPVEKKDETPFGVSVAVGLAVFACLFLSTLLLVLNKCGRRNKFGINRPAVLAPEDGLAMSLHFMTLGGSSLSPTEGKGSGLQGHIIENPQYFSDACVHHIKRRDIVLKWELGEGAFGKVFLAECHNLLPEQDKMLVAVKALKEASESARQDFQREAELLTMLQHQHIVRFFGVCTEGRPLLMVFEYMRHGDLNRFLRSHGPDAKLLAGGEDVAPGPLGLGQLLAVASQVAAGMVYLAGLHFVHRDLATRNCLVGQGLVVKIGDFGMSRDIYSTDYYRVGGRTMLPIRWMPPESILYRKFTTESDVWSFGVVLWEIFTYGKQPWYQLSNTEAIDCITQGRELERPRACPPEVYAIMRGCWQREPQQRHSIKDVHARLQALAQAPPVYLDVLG
Chain of Biotin carboxylase (P37798 whole entry): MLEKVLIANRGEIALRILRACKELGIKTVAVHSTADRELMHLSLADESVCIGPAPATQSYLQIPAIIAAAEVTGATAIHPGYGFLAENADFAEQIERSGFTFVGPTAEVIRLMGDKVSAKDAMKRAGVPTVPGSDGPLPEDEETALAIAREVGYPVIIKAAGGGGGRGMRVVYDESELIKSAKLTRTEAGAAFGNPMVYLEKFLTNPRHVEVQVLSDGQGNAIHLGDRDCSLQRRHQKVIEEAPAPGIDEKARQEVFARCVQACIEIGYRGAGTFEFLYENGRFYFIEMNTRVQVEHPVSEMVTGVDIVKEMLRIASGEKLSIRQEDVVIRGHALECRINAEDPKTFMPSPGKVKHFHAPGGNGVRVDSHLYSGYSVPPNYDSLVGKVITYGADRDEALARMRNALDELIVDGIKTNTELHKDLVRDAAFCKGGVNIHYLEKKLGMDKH
Chain of MAPK1 (P28482 whole entry): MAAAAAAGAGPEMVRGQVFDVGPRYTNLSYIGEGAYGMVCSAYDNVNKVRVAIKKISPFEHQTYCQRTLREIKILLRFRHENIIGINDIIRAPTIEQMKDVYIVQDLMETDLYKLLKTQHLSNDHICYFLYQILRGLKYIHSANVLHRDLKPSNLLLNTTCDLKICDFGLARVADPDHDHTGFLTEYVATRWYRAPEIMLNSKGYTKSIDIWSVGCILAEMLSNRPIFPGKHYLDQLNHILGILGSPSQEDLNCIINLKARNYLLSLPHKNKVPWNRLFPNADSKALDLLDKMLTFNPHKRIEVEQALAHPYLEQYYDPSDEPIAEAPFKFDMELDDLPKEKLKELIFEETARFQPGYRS
Chain of FYN (P06241 whole entry, the tested form may be a part): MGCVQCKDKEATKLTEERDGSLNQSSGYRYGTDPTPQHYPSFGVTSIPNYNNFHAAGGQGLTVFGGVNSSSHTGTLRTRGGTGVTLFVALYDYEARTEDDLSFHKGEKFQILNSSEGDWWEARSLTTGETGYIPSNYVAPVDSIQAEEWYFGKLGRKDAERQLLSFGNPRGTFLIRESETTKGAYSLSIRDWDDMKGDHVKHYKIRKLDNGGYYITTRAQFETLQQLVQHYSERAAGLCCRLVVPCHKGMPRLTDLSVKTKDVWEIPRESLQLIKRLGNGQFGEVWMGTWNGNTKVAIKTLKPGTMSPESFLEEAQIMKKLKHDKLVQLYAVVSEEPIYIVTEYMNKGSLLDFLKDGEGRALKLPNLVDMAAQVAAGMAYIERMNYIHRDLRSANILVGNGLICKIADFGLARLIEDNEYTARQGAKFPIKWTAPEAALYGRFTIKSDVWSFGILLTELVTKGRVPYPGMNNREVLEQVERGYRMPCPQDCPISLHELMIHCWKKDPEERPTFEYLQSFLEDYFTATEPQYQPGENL
Chain of IKBKE (Q14164 whole entry, the tested form may be a part): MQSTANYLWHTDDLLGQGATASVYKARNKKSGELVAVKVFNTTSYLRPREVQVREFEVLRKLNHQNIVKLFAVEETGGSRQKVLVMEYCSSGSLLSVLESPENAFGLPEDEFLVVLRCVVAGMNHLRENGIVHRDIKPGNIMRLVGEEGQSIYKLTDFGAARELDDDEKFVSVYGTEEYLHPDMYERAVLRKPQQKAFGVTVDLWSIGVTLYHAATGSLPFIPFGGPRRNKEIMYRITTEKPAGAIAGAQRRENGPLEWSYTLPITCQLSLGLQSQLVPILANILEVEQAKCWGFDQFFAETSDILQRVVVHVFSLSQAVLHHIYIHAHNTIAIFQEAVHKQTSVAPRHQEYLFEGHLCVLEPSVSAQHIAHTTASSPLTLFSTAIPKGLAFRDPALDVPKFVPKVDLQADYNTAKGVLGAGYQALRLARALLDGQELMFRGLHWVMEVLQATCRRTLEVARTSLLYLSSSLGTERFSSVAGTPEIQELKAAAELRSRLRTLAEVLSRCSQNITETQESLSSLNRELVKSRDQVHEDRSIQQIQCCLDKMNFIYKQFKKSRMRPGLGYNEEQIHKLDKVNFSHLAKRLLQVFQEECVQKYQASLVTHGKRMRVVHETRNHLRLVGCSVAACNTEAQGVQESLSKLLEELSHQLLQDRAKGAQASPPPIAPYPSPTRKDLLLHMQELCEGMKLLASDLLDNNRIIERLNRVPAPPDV
Chain of CDK1/cyclin B (P06493 whole entry, the tested form may be a part): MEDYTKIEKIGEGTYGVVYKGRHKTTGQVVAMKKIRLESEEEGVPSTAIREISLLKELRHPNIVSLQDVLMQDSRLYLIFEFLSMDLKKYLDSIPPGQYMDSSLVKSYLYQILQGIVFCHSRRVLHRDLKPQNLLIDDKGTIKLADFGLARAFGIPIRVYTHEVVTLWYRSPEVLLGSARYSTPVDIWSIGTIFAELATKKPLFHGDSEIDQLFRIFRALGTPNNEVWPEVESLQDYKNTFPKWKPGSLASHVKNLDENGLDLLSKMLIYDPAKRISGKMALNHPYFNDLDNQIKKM
Chain of CDK1/cyclin B (P14635 whole entry, further chain, the tested form may be a part): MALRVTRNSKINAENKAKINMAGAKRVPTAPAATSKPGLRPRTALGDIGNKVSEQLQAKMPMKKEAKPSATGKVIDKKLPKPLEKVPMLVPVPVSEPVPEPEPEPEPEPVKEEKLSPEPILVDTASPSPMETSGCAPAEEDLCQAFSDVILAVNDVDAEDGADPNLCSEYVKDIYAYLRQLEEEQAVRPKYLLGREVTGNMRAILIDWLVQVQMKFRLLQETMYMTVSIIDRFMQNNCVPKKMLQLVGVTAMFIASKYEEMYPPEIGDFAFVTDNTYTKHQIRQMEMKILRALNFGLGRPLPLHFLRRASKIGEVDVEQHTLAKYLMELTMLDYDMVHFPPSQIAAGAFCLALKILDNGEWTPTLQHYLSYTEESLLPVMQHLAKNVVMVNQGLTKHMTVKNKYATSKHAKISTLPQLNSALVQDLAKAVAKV
Chain of AURKA (O14965 whole entry): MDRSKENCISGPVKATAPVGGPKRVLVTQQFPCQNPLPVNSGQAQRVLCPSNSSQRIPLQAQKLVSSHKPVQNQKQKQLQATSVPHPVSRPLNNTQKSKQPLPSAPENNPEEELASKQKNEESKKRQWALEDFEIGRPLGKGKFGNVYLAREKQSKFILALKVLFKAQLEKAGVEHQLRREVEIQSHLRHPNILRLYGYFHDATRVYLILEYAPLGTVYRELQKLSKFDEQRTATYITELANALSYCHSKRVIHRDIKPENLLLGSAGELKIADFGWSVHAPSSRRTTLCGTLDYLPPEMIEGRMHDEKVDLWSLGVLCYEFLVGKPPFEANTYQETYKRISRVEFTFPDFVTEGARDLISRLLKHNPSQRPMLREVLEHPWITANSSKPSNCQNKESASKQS
Chain of CSNK2A1 (P68400 whole entry): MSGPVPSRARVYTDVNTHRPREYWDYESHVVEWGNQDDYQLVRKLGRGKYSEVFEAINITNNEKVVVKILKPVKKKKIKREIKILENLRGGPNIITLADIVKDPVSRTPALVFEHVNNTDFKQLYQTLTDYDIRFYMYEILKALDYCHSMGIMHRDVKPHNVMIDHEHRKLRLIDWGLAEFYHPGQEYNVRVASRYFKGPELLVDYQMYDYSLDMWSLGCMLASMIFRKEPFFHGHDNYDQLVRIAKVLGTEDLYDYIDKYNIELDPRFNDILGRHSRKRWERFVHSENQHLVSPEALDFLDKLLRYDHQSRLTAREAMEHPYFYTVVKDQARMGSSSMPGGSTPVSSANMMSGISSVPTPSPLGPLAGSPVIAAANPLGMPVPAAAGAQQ
Chain of MAPK14 (Q16539 whole entry): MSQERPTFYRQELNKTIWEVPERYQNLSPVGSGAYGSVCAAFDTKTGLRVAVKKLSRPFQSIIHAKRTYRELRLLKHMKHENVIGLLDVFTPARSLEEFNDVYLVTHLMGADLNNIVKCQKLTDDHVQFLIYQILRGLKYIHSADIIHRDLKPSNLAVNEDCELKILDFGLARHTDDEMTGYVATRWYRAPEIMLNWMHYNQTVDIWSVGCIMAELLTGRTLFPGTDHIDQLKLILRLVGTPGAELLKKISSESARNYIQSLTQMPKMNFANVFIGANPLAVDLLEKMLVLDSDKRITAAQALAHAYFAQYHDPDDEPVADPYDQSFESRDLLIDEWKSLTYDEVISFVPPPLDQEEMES

Q: `Nc1ncc2cc(-c3c(Cl)cccc3-c3cccnc3)c(N3C[C@@H]4[C@@H](N)[C@@H]4C3)nc2n1` was tested. Which inhibition at 1 h, 25 µM (IKBKE) did it give?
A: 3%

Q: What about the inhibition at 1 h, 25 µM (NTRK1) of the same compound?
A: 47%

Q: And the inhibition at 1 h, 25 µM (MET)?
A: 7%

Q: And the inhibition at 1 h, 25 µM (CDK1/cyclin B)?
A: 4%

Q: And the inhibition at 1 h, 25 µM (FYN)?
A: 12%

Q: And the Activity (Pseudomonas aeruginosa)?
A: 9 ×10⁻⁹ No_unit

Q: What about the inhibition at 1 h, 25 µM (IKBKB) of the same compound?
A: 5%

Q: And the inhibition at 1 h, 25 µM (CSNK2A1)?
A: 0%

Q: What about the MIC (Escherichia coli [1]) of the same compound?
A: 0.03 µg/mL (≈ 0.0698 µM)

Q: What about the inhibition at 1 h, 25 µM (BTK) of the same compound?
A: 16%

Q: And the inhibition at 1 h, 25 µM (AURKA)?
A: 9%

Q: What about the pIC50 (Biotin carboxylase) of the same compound?
A: ≥ 7.82

Q: For `Nc1ncc2cc(-c3c(Br)cccc3Br)c(N)nc2n1`, which inhibition at 1 h, 25 µM (NTRK1) is on record?
A: 47%

Q: What about the inhibition at 1 h, 25 µM (CDK1/cyclin B) of the same compound?
A: 18%

Q: And the inhibition at 1 h, 25 µM (MAPK1)?
A: 26%

Q: And the inhibition at 1 h, 25 µM (MAPK14)?
A: 24%

Q: And the inhibition at 1 h, 25 µM (CSNK2A1)?
A: 4%

Q: And the Activity (Escherichia coli [2])?
A: Active

Q: And the inhibition at 1 h, 25 µM (AURKA)?
A: 20%

Q: What about the inhibition at 1 h, 25 µM (SGK (Sgk1)) of the same compound?
A: 7%

Q: `CC(C)COc1cccc(Cl)c1-c1cc2cnc(N)nc2nc1N1C[C@@H]2[C@@H](N)[C@@H]2C1` was tested. Which inhibition at 1 h, 25 µM (IKBKE) did it give?
A: 0%

Q: What about the inhibition at 1 h, 25 µM (NTRK1) of the same compound?
A: 40%

Q: What about the inhibition at 1 h, 25 µM (MET) of the same compound?
A: 15%

Q: And the inhibition at 1 h, 25 µM (MAPK1)?
A: 6%

Q: And the inhibition at 1 h, 25 µM (FYN)?
A: 12%

Q: And the Activity (Pseudomonas aeruginosa)?
A: 2 ×10⁻⁹ No_unit

Q: And the Activity (Escherichia coli [3])?
A: Active

Q: And the inhibition at 1 h, 25 µM (MAPK14)?
A: 5%

Q: And the MIC (Escherichia coli [1])?
A: 0.03 µg/mL (≈ 0.0706 µM)

Q: And the pIC50 (Biotin carboxylase)?
A: ≥ 7.82
